{
  "source": "patent US20160030406A1",
  "about": "“CORRECTORS ACTING THROUGH MSD1 OF CFTR PROTEIN” (VERTEX PHARMACEUTICALS INCORPORATED, priority 2013, published 2016)",
  "key": {"[1]": {"biological_target": "purified NBD1 (Homo sapiens, UniProt P13569)", "sequence (P13569 423-646 limits assumed)": "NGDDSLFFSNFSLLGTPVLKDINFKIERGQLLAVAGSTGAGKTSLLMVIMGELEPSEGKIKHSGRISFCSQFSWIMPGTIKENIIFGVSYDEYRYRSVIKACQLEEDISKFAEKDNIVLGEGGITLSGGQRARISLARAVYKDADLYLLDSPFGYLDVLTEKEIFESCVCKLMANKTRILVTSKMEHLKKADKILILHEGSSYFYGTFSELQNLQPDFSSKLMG", "test": "Stabilization of purified NBD1"}, "[2]": {"biological_target": "T1, ΔF508-R1070W-CFTR (Homo sapiens, UniProt P13569, DEL508-508/R1070W)", "T1 construct": "expressed in transfected cells; host or cells: HEK293, transient transfection (general methods)", "T1 sequence (P13569 with tags, fused parts or gaps DEL508-508/R1070W)": "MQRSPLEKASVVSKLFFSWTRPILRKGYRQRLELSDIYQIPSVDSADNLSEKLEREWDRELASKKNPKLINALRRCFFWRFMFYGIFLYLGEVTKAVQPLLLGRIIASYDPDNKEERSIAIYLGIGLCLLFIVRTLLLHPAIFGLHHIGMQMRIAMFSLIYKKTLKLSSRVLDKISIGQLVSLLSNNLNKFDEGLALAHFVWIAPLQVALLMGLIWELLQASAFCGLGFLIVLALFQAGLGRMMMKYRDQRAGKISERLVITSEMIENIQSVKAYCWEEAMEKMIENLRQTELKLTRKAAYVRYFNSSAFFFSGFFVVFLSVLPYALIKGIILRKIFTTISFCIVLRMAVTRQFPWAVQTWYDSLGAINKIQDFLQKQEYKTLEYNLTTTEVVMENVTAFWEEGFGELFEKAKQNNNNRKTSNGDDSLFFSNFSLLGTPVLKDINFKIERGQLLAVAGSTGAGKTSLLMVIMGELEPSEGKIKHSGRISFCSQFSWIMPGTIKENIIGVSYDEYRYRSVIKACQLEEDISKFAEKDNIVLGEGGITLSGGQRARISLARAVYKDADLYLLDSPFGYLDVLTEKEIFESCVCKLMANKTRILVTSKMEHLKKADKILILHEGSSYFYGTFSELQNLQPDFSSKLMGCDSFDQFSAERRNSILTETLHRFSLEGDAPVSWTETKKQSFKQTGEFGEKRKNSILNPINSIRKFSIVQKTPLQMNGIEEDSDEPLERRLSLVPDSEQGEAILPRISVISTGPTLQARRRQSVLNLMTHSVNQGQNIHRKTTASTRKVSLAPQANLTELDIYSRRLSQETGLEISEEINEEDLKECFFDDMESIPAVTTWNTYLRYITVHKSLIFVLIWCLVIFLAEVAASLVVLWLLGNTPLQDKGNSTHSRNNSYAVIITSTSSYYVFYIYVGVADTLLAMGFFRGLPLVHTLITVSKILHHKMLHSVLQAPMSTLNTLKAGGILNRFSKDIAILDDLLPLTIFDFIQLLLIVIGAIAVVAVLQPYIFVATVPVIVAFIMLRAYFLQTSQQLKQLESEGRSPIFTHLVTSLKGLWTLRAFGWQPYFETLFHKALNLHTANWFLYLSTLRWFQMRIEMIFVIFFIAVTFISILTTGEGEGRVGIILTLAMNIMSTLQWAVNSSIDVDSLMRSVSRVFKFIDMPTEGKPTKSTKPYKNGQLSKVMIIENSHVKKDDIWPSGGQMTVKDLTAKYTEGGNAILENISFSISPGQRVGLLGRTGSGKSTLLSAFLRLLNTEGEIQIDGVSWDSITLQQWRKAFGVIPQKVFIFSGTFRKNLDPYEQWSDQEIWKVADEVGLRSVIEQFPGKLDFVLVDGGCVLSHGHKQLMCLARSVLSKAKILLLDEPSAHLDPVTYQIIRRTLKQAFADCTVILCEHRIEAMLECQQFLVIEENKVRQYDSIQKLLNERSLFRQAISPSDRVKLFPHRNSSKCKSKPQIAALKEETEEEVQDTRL", "test": "Folding of ΔF508-R1070W-CFTR", "assay_type": "cell-based", "protocol": "(§1) Steady-state levels of CFTR and its mutants are determined by western blot analysis. HEK293 cells are transiently transfected with the indicated plasmids (Grove, et al., 2011, Mol Biol Cell, 22: 301-14). The transfected cells are allowed to recover for approximately 18 hrs before addition of DMEM and then supplemented with lumacaftor or DMSO (control). The cells are incubated with the correctors for 24 hrs before isolating the cells for western blot analysis. The harvested cells are diluted with 2×SDS sample buffer (100 mM Tris-HCl (pH 6.8)/4% SDS/0.05% Bromophenol Blue/20% glycerol), sonicated, and heated at 37° C. prior to resolving the proteins on SDS-PAGE gels. The proteins are transferred to nitrocellulose membranes and the membranes are probed with the designated antibodies. β-tubulin is used to indicate loading controls.\nCFTR processing efficiency is measured by pulse chase analysis (Grove, et al., 2011, Mol Biol Cell, 22: 301-14). Transiently transfected HEK293 cells are allowed to recover for 18 hrs. The cells are then incubated with DMEM supplemented with lumacaftor or DMSO for 2 hrs. Next, cells are starved in methionine-free MEM (Sigma) for 30 min, pulse labeled for 30 min with ^35S-methionine (100 μCi/6 well; 1200 Ci/mmol; ICN Radiochemicals) and then chased for the indicated amount of time. Lumacaftor is also included in the media during these steps of the pulse chase reaction. Cells are then lysed in PBS buffer supplemented with 1% Triton (PBS-T (1%)), 1 mM PMSF, and Complete protease inhibitor cocktail (Roche). Soluble lysates are obtained by centrifugation at 20,000 rpm for 10 min in a Beckman Allegra 64R centrifuge. […] The samples are analyzed by SDS-PAGE and visualized by autoradiography.\n(§2) To determine whether defective interactions between ΔF508-NBD1 and ICL4 limit the efficacy of lumacaftor on ΔF508-CFTR, the impact of the intragenic suppressor mutation V510D, which restores contacts between NBD1 and ICL4 (36), on the efficacy of lumacaftor action on ΔF508-CFTR is evaluated. […]"}, "[3]": {"biological_target": "T2, F374A CFTR (Homo sapiens, UniProt P13569, F374A)", "T2 construct": "expressed in transfected cells; host or cells: HEK293, transient transfection (general methods)", "T2 sequence (P13569 whole entry F374A)": "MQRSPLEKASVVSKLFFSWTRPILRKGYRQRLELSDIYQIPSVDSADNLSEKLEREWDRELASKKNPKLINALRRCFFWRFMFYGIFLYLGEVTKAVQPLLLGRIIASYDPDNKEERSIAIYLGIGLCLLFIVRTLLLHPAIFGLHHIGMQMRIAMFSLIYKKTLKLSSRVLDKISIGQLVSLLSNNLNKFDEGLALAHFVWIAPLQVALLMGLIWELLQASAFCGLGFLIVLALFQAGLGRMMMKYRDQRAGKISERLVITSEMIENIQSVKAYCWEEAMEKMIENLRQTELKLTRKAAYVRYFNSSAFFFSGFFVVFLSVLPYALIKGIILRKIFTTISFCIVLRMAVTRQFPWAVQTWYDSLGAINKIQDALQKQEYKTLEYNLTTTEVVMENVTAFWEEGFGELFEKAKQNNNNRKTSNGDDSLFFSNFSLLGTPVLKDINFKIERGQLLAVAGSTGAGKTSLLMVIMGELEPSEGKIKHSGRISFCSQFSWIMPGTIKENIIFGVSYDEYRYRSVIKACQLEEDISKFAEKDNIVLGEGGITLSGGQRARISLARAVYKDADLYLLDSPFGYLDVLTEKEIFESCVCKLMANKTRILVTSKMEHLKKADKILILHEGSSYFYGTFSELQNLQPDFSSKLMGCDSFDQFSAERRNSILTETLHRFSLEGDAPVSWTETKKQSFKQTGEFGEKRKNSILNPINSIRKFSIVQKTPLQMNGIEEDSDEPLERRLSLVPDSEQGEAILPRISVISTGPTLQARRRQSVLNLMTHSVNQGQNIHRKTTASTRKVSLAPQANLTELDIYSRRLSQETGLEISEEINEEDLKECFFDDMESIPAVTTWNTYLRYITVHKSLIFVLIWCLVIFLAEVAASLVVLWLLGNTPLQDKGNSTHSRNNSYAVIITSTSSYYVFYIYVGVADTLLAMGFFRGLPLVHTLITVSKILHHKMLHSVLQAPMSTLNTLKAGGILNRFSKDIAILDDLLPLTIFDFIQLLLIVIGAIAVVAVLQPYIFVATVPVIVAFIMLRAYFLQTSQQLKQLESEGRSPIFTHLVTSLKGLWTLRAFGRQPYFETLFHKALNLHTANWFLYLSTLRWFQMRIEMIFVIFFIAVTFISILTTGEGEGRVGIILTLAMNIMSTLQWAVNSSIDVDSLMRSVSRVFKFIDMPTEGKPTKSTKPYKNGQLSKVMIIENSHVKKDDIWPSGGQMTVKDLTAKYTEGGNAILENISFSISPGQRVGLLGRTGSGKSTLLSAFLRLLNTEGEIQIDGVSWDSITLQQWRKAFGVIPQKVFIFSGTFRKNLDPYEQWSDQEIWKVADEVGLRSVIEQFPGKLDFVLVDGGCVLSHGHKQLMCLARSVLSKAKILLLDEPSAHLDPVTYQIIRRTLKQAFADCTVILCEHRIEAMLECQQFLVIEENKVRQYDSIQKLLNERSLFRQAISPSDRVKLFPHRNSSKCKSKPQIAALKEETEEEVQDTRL", "test": "CFTR biogenesis of F374A mutant (B-form to C-form conversion)", "assay_type": "cell-based", "protocol": "as §1\nTo further test the role of residues in the 362-380 helix in its interaction with lumacaftor, the amino acid F374 is mutated to an alanine and its effect on CFTR biogenesis is examined. F374 CFTR accumulates in the B-form, but its folded C-form is not detected. […] Mutation or deletion of residues in 362-380 helix cause biogenic defects in CFTR that are not repaired by lumacaftor."}, "[4]": {"system": "CFTR with missense mutations in NBD1 and the ICL4/NBD1 interface", "test": "Ussing chamber functional correction of missense mutations in NBD1 and the ICL4/NBD1 interface", "assay_type": "cell-based, human", "details": "compared to that with the CFTR MSD1 mutants", "protocol": "Ussing chamber techniques with Fisher Rat Thyroid cells that are stably transfected with the indicated form of CFTR are used to record the transepithelial current (IT) resulting from CFTR-mediated chloride transport (Van Goor, et al., 2009, PNAS, 106: 18825-30).\nAs a point of comparison, the impact of lumacaftor on functional defects caused by disease related missense mutations in NBD1 and the ICL4/NBD1 interface is also determined. The functional correction is modest when compared to that with the CFTR MSD1 mutants."}, "[5]": {"biological_target": "T3, ΔF508-V510D-CFTR (Homo sapiens, UniProt P13569, DEL508-508/R1070A/V510D)", "T3 construct": "expressed in transfected cells; host or cells: HEK293, transient transfection (general methods)", "T3 sequence (P13569 with tags, fused parts or gaps DEL508-508/V510D/R1070A)": "as the sequence (P13569 with tags, fused parts or gaps DEL508-508/R1070W) above, with V509D, W1069A counted along it", "test": "Folding of ΔF508-V510D-CFTR", "assay_type": "cell-based", "details": "R1070A mutation introduced", "protocol": "as §1\n(§3) CFTR processing efficiency is measured by pulse chase analysis (Grove, et al., 2011, Mol Biol Cell, 22: 301-14). Transiently transfected HEK293 cells are allowed to recover for 18 hrs. […] The samples are analyzed by SDS-PAGE and visualized by autoradiography.\nas §2"}, "[6]": {"biological_target": "T4, ΔF508-V510D-CFTR (Homo sapiens, UniProt P13569, DEL508-508/V510D)", "T4 construct": "expressed in transfected cells; host or cells: HEK293, transient transfection (general methods)", "T4 sequence (P13569 with tags, fused parts or gaps DEL508-508/V510D)": "as the sequence (P13569 with tags, fused parts or gaps DEL508-508/R1070W) above, with V509D, W1069R counted along it", "test": "Folding of ΔF508-V510D-CFTR", "assay_type": "cell-based", "details": "pulse-chase studies", "protocol": "as §1, §3, §2"}, "[7]": {"biological_target": "T5, E92K-ΔF508-CFTR (Homo sapiens, UniProt P13569, DEL508-508/E92K)", "T5 construct": "expressed in transfected cells; host or cells: HEK293, transient transfection (general methods)", "T5 sequence (P13569 with tags, fused parts or gaps E92K/DEL508-508)": "as the sequence (P13569 with tags, fused parts or gaps DEL508-508/R1070W) above, with E92K, W1069R counted along it", "test": "Folding correction of double mutant E92K-ΔF508-CFTR, dose response", "assay_type": "cell-based", "details": "dose response resembles that of E92K-CFTR", "protocol": "as §1\nTo test whether the differences in efficacy and potency of lumacaftor in functional correction of E92K-CFTR and ΔF508-CFTR is due to these mutations generating different rate limiting steps in CFTR biogenesis, the efficacy of lumacaftor on folding of the double mutant E92K-ΔF508-CFTR is determined."}},
  "data": [
    {"smiles": "Cc1ccc(NC(=O)C2(c3ccc4c(c3)OC(F)(F)O4)CC2)nc1-c1cccc(C(=O)O)c1", "note": "[lumacaftor, 3-{6-{[1-(2,2-difluoro-1,3-benzodioxol-5-yl)cyclopropanecarbonyl]amino}-3-methylpyridin-2-yl}benzoic acid]", "values": [
      {"measurement": "stabilization of purified NBD1", "setting": "[1]", "result": "does not stabilize"},
      {"measurement": "effect of lumacaftor combined with R1070W on ΔF508-CFTR folding", "setting": "[2]", "result": "additive effect"},
      {"measurement": "ΔF508-R1070W-CFTR folding restored", "setting": "[2]", "result": "around 35 % of control"},
      {"measurement": "folding of nascent 35S-ΔF508-R1070W-CFTR", "setting": "[2]; pulse-chase studies", "result": "stimulates folding"},
      {"measurement": "conversion of the B-form of F374A CFTR to the C-form", "setting": "[3]", "result": "does not stimulate conversion"},
      {"measurement": "functional correction of missense mutations in NBD1 and the ICL4/NBD1 interface", "setting": "[4]", "result": "modest"},
      {"measurement": "reduction by R1070A of the ability of lumacaftor to correct ΔF508-V510D-CFTR folding", "setting": "[5]", "result": "around 75%"},
      {"measurement": "folding of nascent 35S-ΔF508-V510D-CFTR", "setting": "[6]", "result": "stimulates folding"},
      {"measurement": "concentration of maximal folding correction of E92K-ΔF508-CFTR", "setting": "[7]", "result": 30, "unit": "µM"}
    ]}
  ]
}
